# Reference: patent US10183915B2, “Axially chiral isomers, and preparation methods therefor and pharmaceutical uses thereof” (MEDSHINE DISCOVERY INC., priority 2015, dated 2019)
# Legend:
# [1] = Stability of compounds in ethanol solutions (heated; SFC chiral purity); assay type: physicochemical; conditions: for Enantiomer Excess of Compound: ethanol solution
# Text: Test 3: Evaluation of the Stability of Compounds in Ethanol Solutions.
# An appropriate amount of test compound was accurately weighed, added into ethanol to obtain an ethanol solution. The ethanol solution of the compound was stirred in a heated oil bath. At the end of the test, the purity and chiral purity of the compound was detected by high performance liquid chromatography (HPLC) or LC-MS (LCMS) and supercritical fluid chromatography (SFC).
# [2] = molecular target: T1, human URAT1 (Homo sapiens, UniProt Q96S37); assay: Inhibition of URAT1-mediated uptake of 14C-labeled uric acid in stably transfected HEK293 cells; assay type: cell-based; conditions: multiple parallel tests
# T1 construct: host or cells: HEK293
# T1 sequence (Q96S37 1-553): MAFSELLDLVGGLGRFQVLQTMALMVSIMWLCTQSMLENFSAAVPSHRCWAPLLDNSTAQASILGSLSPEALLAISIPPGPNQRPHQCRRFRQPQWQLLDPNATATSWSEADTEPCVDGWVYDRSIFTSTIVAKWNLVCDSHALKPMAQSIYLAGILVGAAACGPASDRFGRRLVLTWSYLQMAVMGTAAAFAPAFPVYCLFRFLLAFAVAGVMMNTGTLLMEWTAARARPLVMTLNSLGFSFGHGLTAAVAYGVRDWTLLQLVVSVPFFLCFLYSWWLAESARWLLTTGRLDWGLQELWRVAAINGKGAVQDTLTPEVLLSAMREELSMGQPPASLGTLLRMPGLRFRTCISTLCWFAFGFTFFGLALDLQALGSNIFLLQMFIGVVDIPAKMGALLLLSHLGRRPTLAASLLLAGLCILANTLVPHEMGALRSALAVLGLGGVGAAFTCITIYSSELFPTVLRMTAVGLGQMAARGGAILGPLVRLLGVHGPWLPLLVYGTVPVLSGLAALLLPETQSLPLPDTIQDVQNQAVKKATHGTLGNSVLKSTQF
# Experimental: A HEK293 cell line stably transfected with URAT-1 (uric acid transporter) gene was used to determine the IC50 value of the compound to inhibit the reabsorption of uric acid.
# URAT-1 (HEK293) cell lines: HEK293 cell line with human URAT1 stable transfected (the cell line was constructed by WuXi AppTec in Shanghai).
# 4) The cells were diluted with culture medium to 2.5×10^5 cells/mL. The diluted cells was seeded into 24-well plates (800 μg/hole, 2×10^5 cells/hole) coated with rat tail collagen and the plates were incubated at 37° C. under 5% CO2 overnight.
# 1) The cells were inoculated on the 24-well plates and discarded 16-18 hours later. Add 600 μL HBSS buffer to each hole and clean it two times
# 2) Absorb the HBSS buffer and then add 180 μL of HBSS buffer to each hole.
# 1) Dissolve the compound powder in 100% DMSO. […]
# 10 μL of ^14C-Uric acid solution was diluted and added to each well of 24-well plates and the final concentration of ^14C-uric acid was 50 μM. […] Collect the cell lysis in liquid scintillation and read the Tri-Carb signal in liquid scintillation counter after adding the liquid scintillation solution.
# Based on the luminescence data, the inhibitory effect of compounds on URAT-1 was analyzed, and the percentage of inhibition data was calculated. […]
smiles,measurement,setting,value
"O=C(O)CSc1nnc(Br)n1-c1ccc(C2CC2)c2ccccc12 (single isomer, unassigned) [(+)-Lesinurad]",Enantiomer Excess of Compound,"[1]; 37° C., 3 days",Unchanged
same,Enantiomer Excess of Compound,"[1]; 70° C., 3 days",Unchanged
same,Enantiomer Excess of Compound,[1]; heating time 0 day,95.9%
same,Stability in ethanol solutions (SFC purity),[1]; heating to 37° C. and up to 70° C.,very stable
same,In vitro potency against URAT1 compared with (−)-Lesinurad and (±)-Lesinurad,[2],obviously higher in vitro potency
